Results taken from patent US20080280862A1, “Methods, compositions, and kits for the treatment of pain” (priority 2007, published 2008).

How the values were obtained:
[1] = tested on: carrageenan-induced pain model in rats; assay: Carrageenan pain model, mechanical allodynia by Von Frey filaments; format: in vivo, Sprague-Dawley rats; conditions: for Mean AUC ± SEM: AUC from 20 minutes through 120 minutes following carrageenan injection
Method: The carrageenan model is a fast, reliable model used to assess the ability of analgesics to block inflammatory pain. The analgesic effects of test article combinations on pain generation are assayed using the carrageenan-induced pain model in rats. Adult male Sprague-Dawley rats are administered study drugs intraperitoneally (vehicle, tricyclic compound (TCA), steroid or TCA/Steroid test article combinations) once daily for 2 days (day −2 and day −1) and 30 minutes prior to the carrageenan injection on day 0 (time=0). For the carrageenan injection, animals are lightly anesthetized and 0.1 ml of 2% carrageenan is injected into the plantar surface of the right hind paw. The positive control diclofenac at a dose of 25 mg/kg is administered intraperitoneally immediately before the carrageenan injection. Paw volumes (right and left) are measured using a plathysmometer before drug administration on day −2 and serve as a baseline measurement. The paw volumes are measured again two hours post carrageenan injection. The degree of mechanical allodynia is measured by a blinded observer using Von Frey filaments applied to the plantar surface of the hind paws in an increasing numerical order. Each filament increases the force applied on the paw. The filaments are applied until animal paw withdrawal is achieved. This procedure is carried out before drug administration (day −2), on day −1 and on day 0 at time=0, 20, 40, 60, 80 and 120 minutes post-carrageenan. The force (expressed in grams) required for paw withdrawal after carrageenan injection is subtracted from the force required for paw withdrawal before carrageenan injection. Results are expressed as mean change from baseline across five timepoints post carrageenan injection in Table 4.
For a synergy calculation, experimental data from the carrageenan study are fitted to a median-effect model and used to calculate the parameters' median-effect dose (Dm), slope (m), correlation coefficient (r), combination index (CI) and dose-reduction index (DRI). In addition, the probability of pain inhibition occurring after single-component (nortriptyline) versus the combination drug treatments are calculated from the negative change from baseline data using a Bayesian sensitivity analysis. The likelihood of pain inhibition is characterized for nortriptyline administered alone (1 mg/kg or 3 mg/kg) versus the fixed-dose combination treatments [prednisolone (0.3 mg/kg):nortriptyline (1 mg/kg) or prednisolone (1 mg/kg):nortriptyline (3 mg/kg)] each evaluated at 60 and 80 minutes for analgesic effect.
In another example, the effects of test article combinations on pain inhibition were assayed using the carrageenan model in rodents. Desipramine was tested alone and in combination at 0.3, 1, and 3 mg/kg and prednisolone was tested similarly at 0.3, 1 and 3 mg/kg IP.

[2] = tested on: formalin-induced pain model in rats; assay: Formalin pain model, nociceptive behaviors; format: in vivo, Sprague-Dawley rats; conditions: Experiment Two
Method: The formalin model is a fast, reliable model used to assess potential analgesics ability to block inflammatory pain. The analgesic effects of test article combinations on pain generation are assayed using the formalin-induced pain model in rats. Adult male Sprague-Dawley rats are administered intraperitoneally study drugs (vehicle, TCA, steroid or TCA/Steroid test article combinations) once daily for 2 days (day −2 and day −1) and 30 minutes prior to the formalin injection day on day 0 (time=0). […] To elicit a pain response, dilute formalin (2% in saline) is injected under the skin of the plantar surface of the right hindpaw. The animal is placed in an observation chamber. The pain response is a characteristic biphasic response pattern of nociceptive behaviors (lifting, licking, and biting of the injected paw). Two distinct periods of nociceptive behaviors/activity are observed and recorded: an early phase (phase I) lasting the first 5-10 min and a late phase (phase II) lasting 20-40 min after the injection of formalin. One hour of data is collected (time spent displaying pain behavior) by a blinded observer using a stopwatch. Results are expressed as the number of pain behaviors per 5 minute periods (Table 8 and Table 9).

C[C@]12C=CC(=O)C=C1CC[C@@H]1[C@@H]2[C@@H](O)C[C@@]2(C)[C@H]1CC[C@]2(O)C(=O)CO [Prednisolone]
Mean AUC ± SEM ([1]; 0.3 mg/Kg): 2302 ± 634.46 | Mean AUC ± SEM ([1]; 1 mg/Kg): 1583 ± 574.15 | Mean change from baseline ± SEM ([1]; Experiment One, 3 mg/kg, 20 minutes): 1.10 ± 9.30 g | Mean change from baseline ± SEM ([1]; Experiment One, 3 mg/kg, 40 minutes): -52.01 ± 12.52 g | Mean change from baseline ± SEM ([1]; Experiment One, 3 mg/kg, 60 minutes): -101.90 ± 15.02 g | Mean change from baseline ± SEM ([1]; Experiment One, 3 mg/kg, 80 minutes): -159.70 ± 16.77 g | Mean change from baseline ± SEM ([1]; Experiment One, 3 mg/kg, 120 minutes): -212.90 ± 20.82 g | Mean change from baseline ± SEM ([1]; Experiment One, 10 mg/kg, 20 minutes): 5.60 ± 6.14 g | Mean change from baseline ± SEM ([1]; Experiment One, 10 mg/kg, 40 minutes): -44.30 ± 11.47 g | Mean change from baseline ± SEM ([1]; Experiment One, 10 mg/kg, 60 minutes): -97.50 ± 14.33 g | Mean change from baseline ± SEM ([1]; Experiment One, 10 mg/kg, 80 minutes): -147.30 ± 16.72 g | Mean change from baseline ± SEM ([1]; Experiment One, 10 mg/kg, 120 minutes): -193.70 ± 18.07 g | Mean change from baseline ± SEM ([1]; Experiment One, 20 mg/kg, 20 minutes): -29.40 ± 5.10 g | Mean change from baseline ± SEM ([1]; Experiment One, 20 mg/kg, 40 minutes): -82.60 ± 5.59 g | Mean change from baseline ± SEM ([1]; Experiment One, 20 mg/kg, 60 minutes): -135.80 ± 7.21 g | Mean change from baseline ± SEM ([1]; Experiment One, 20 mg/kg, 80 minutes): -189.00 ± 8.41 g | Mean change from baseline ± SEM ([1]; Experiment One, 20 mg/kg, 120 minutes): -246.20 ± 12.02 g | Mean change from baseline ± SEM ([1]; Experiment One, 35 mg/kg, 20 minutes): -13.60 ± 7.52 g | Mean change from baseline ± SEM ([1]; Experiment One, 35 mg/kg, 40 minutes): -73.60 ± 7.52 g | Mean change from baseline ± SEM ([1]; Experiment One, 35 mg/kg, 60 minutes): -130.20 ± 7.26 g | Mean change from baseline ± SEM ([1]; Experiment One, 35 mg/kg, 80 minutes): -176.60 ± 10.69 g | Mean change from baseline ± SEM ([1]; Experiment One, 35 mg/kg, 120 minutes): -216.20 ± 11.39 g | Mean change from baseline ± SEM ([1]; Experiment Two, first set of rows, 0.3 mg/kg, 20 minutes): 4.79 ± 7.92 g | Mean change from baseline ± SEM ([1]; Experiment Two, first set of rows, 0.3 mg/kg, 40 minutes): 16.77 ± 5.63 g | Mean change from baseline ± SEM ([1]; Experiment Two, first set of rows, 0.3 mg/kg, 60 minutes): 19.7 ± 5.68 g | Mean change from baseline ± SEM ([1]; Experiment Two, first set of rows, 0.3 mg/kg, 80 minutes): 24.31 ± 6.40 g | Mean change from baseline ± SEM ([1]; Experiment Two, first set of rows, 0.3 mg/kg, 120 minutes): 25.57 ± 6.79 g | Mean change from baseline ± SEM ([1]; Experiment Two, first set of rows, 1 mg/kg, 20 minutes): 27.60 ± 5.74 g | Mean change from baseline ± SEM ([1]; Experiment Two, first set of rows, 1 mg/kg, 40 minutes): 28.64 ± 5.42 g | Mean change from baseline ± SEM ([1]; Experiment Two, first set of rows, 1 mg/kg, 60 minutes): 25.54 ± 6.04 g | Mean change from baseline ± SEM ([1]; Experiment Two, first set of rows, 1 mg/kg, 80 minutes): 23.77 ± 6.08 g | Mean change from baseline ± SEM ([1]; Experiment Two, first set of rows, 1 mg/kg, 120 minutes): 35.14 ± 5.26 g | Mean change from baseline ± SEM ([1]; Experiment Two, second set of rows, 0.3 mg/kg, 20 minutes): 0.00 ± 7.42 g | Mean change from baseline ± SEM ([1]; Experiment Two, second set of rows, 0.3 mg/kg, 40 minutes): -4.86 ± 4.86 g | Mean change from baseline ± SEM ([1]; Experiment Two, second set of rows, 0.3 mg/kg, 60 minutes): 0.00 ± 0.00 g | Mean change from baseline ± SEM ([1]; Experiment Two, second set of rows, 0.3 mg/kg, 80 minutes): 4.86 ± 4.86 g | Mean change from baseline ± SEM ([1]; Experiment Two, second set of rows, 0.3 mg/kg, 120 minutes): 31.43 ± 5.54 g | Mean change from baseline ± SEM ([1]; Experiment Two, second set of rows, 1 mg/kg, 20 minutes): 9.71 ± 6.27 g | Mean change from baseline ± SEM ([1]; Experiment Two, second set of rows, 1 mg/kg, 40 minutes): 0.00 ± 10.49 g | Mean change from baseline ± SEM ([1]; Experiment Two, second set of rows, 1 mg/kg, 60 minutes): 16.14 ± 7.73 g | Mean change from baseline ± SEM ([1]; Experiment Two, second set of rows, 1 mg/kg, 80 minutes): 24.14 ± 7.56 g | Mean change from baseline ± SEM ([1]; Experiment Two, second set of rows, 1 mg/kg, 120 minutes): 12.86 ± 13.38 g | decrease of median-effect dose (Dm) after co-administration compared to the monotherapy ([1]; median-effect model, prednisolone/nortriptyline 1:3 fixed ratios): 10 fold | Mean number of behaviors per 5 minute block ([2]; 1 mg/kg, 5 minutes): 224.0 ± 34.1 | Mean number of behaviors per 5 minute block ([2]; 1 mg/kg, 10 minutes): 27.0 ± 11.7 | Mean number of behaviors per 5 minute block ([2]; 1 mg/kg, 15 minutes): 18.0 ± 15.2 | Mean number of behaviors per 5 minute block ([2]; 1 mg/kg, 20 minutes): 115.0 ± 41.9 | Mean number of behaviors per 5 minute block ([2]; 1 mg/kg, 25 minutes): 172.0 ± 51.1 | Mean number of behaviors per 5 minute block ([2]; 1 mg/kg, 30 minutes): 178.0 ± 52.0 | Mean number of behaviors per 5 minute block ([2]; 1 mg/kg, 35 minutes): 174.0 ± 48.7 | Mean number of behaviors per 5 minute block ([2]; 1 mg/kg, 40 minutes): 207.0 ± 43.9 | Mean number of behaviors per 5 minute block ([2]; 1 mg/kg, 45 minutes): 197.0 ± 45.3 | Mean number of behaviors per 5 minute block ([2]; 1 mg/kg, 50 minutes): 192.0 ± 48.4 | Mean number of behaviors per 5 minute block ([2]; 1 mg/kg, 55 minutes): 113.0 ± 43.2 | Mean number of behaviors per 5 minute block ([2]; 1 mg/kg, 60 minutes): 92.0 ± 29.7 | Mean number of behaviors per 5 minute block ([2]; 3 mg/kg, 5 minutes): 218.0 ± 14.7 | Mean number of behaviors per 5 minute block ([2]; 3 mg/kg, 10 minutes): 15.0 ± 6.7 | Mean number of behaviors per 5 minute block ([2]; 3 mg/kg, 15 minutes): 6.0 ± 3.4 | Mean number of behaviors per 5 minute block ([2]; 3 mg/kg, 20 minutes): 68.0 ± 19.8 | Mean number of behaviors per 5 minute block ([2]; 3 mg/kg, 25 minutes): 208.0 ± 35.5 | Mean number of behaviors per 5 minute block ([2]; 3 mg/kg, 30 minutes): 214.0 ± 39.8 | Mean number of behaviors per 5 minute block ([2]; 3 mg/kg, 35 minutes): 254.0 ± 29.2 | Mean number of behaviors per 5 minute block ([2]; 3 mg/kg, 40 minutes): 269.0 ± 14.2 | Mean number of behaviors per 5 minute block ([2]; 3 mg/kg, 45 minutes): 258.0 ± 19.9 | Mean number of behaviors per 5 minute block ([2]; 3 mg/kg, 50 minutes): 221.0 ± 36.1 | Mean number of behaviors per 5 minute block ([2]; 3 mg/kg, 55 minutes): 198.0 ± 38.1 | Mean number of behaviors per 5 minute block ([2]; 3 mg/kg, 60 minutes): 133.0 ± 46.8
